pIC50: −log10 of the molar value.
Experiments:
Galectin-3 = Galectin-3 (Homo sapiens, UniProt P17931); test: Biological Assay
Protocol: (§1) The inhibitory activity of compounds is determined in competitive binding assays. […] Finally, 25 μL/well of ABTS substrate is added.

Galectin-1 = Galectin-1 (Homo sapiens, UniProt P09382); test: Biological Assay
Protocol: as §1

Sequence of Galectin-1 (P09382 whole entry): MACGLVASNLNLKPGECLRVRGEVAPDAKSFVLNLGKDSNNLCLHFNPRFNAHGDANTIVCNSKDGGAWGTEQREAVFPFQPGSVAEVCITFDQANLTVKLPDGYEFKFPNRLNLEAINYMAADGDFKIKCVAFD
Sequence of Galectin-3 (P17931 whole entry): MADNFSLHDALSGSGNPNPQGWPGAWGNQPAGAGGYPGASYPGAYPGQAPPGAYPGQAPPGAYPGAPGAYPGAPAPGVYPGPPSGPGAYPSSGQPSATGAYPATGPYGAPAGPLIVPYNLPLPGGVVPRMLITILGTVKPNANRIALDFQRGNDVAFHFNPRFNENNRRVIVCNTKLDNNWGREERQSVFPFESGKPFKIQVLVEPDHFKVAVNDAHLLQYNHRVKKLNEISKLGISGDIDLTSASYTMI

Row | pIC50 (Galectin-3) | pIC50 (Galectin-1) | Compound
1 | 7.59 | 6.72 | CO[C@@H]1[C@@H](n2cc(-c3cc(F)cc(F)c3)nn2)[C@@H](O)[C@@H](CO)O[C@H]1C(=O)N(c1cc(Cl)cc(Cl)c1)[C@H]1CCCC[C@@H]1O [US12291519, Example 78]
2 | 8.05 | 6.29 | COc1cc(-c2cn([C@H]3[C@@H](O)[C@@H](CO)O[C@@H](C(=O)N(c4cc(Cl)cc(Cl)c4)[C@H]4CCCC[C@@H]4O)[C@@H]3OC)nn2)cc(F)c1F [US12291519, Example 183]
3 | 7.48 | 6.77 | CO[C@@H]1[C@@H](n2cc(-c3cc(F)c(F)c(F)c3)nn2)[C@@H](O)[C@@H](CO)O[C@H]1C(=O)N(c1ccc(Cl)c(Cl)c1)[C@H]1CCCC[C@@H]1O [US12291519, Example 98]
4 | 6.25 | 4.39 | Cc1nc(CN(C(=O)[C@@H]2O[C@H](CO)[C@H](O)[C@H](n3cc(-c4cc(F)c(F)c(F)c4)nn3)[C@H]2O)[C@H]2CCCC[C@@H]2O)c[nH]1 [US12291519, Example 14]
5 | 7.72 | 6.15 | CO[C@@H]1[C@@H](n2cc(-c3cc(F)c(Cl)c(F)c3)nn2)[C@@H](O)[C@@H](CO)O[C@H]1C(=O)N(c1cc(Cl)cc(C#N)c1)[C@H]1CCCC[C@@H]1O [US12291519, Example 157]
6 | 7.96 | 5.92 | CO[C@@H]1[C@@H](n2cc(-c3ccc(C(F)(F)F)c(F)c3)nn2)[C@@H](O)[C@@H](CO)O[C@H]1C(=O)N(c1cc(Cl)cc(Cl)c1)[C@H]1CCCC[C@@H]1O [US12291519, Example 180]
7 | 7.51 | 7.24 | CO[C@@H]1[C@@H](n2cc(-c3cccc(F)c3)nn2)[C@@H](O)[C@@H](CO)O[C@H]1C(=O)N(c1cc(Cl)cc(Cl)c1)[C@H]1CCCC[C@@H]1O [US12291519, Example 72]
8 | 8.10 | 6.82 | CO[C@@H]1[C@@H](n2cc(-c3cc(F)c(F)c(F)c3)nn2)[C@@H](O)[C@@H](CO)O[C@H]1C(=O)N(c1cc(Br)cc(C#N)c1)[C@H]1CCCC[C@@H]1O [US12291519, Example 112]
9 | 6.53 | 4.59 | Cn1ccc(CN(C(=O)[C@@H]2O[C@H](CO)[C@H](O)[C@H](n3cc(-c4cc(F)c(F)c(F)c4)nn3)[C@H]2O)[C@H]2CCCC[C@@H]2O)n1 [US12291519, Example 24]
10 | 7.38 | 6.21 | O=C([C@@H]1O[C@H](CO)[C@H](O)[C@H](n2cc(-c3cc(F)c(Cl)c(F)c3)nn2)[C@H]1O)N(Cc1ccccc1C(F)(F)F)[C@H]1CCCC[C@@H]1O [US12291519, Example 67]
11 | 6.39 | 4.42 | Cn1cnc(CN(C(=O)[C@@H]2O[C@H](CO)[C@H](O)[C@H](n3cc(-c4cc(F)c(F)c(F)c4)nn3)[C@H]2O)[C@H]2CCCC[C@@H]2O)c1 [US12291519, Example 19]
12 | 7.46 | 6.57 | CO[C@@H]1[C@@H](n2cc(-c3cc(F)c(Cl)cc3F)nn2)[C@@H](O)[C@@H](CO)O[C@H]1C(=O)N(c1cc(Cl)cc(C#N)c1)[C@H]1CCCC[C@@H]1O [US12291519, Example 182]
13 | 7.54 | 6.55 | COc1cc(-c2cn([C@H]3[C@@H](O)[C@@H](CO)O[C@@H](C(=O)N(c4cc(Cl)cc(C#N)c4)[C@H]4CCCC[C@@H]4O)[C@@H]3OC)nn2)ccc1Cl [US12291519, Example 184]
14 | 7.68 | 6.79 | O=C([C@@H]1O[C@H](CO)[C@H](O)C(n2cc(-c3cc(F)c(F)c(F)c3)nn2)[C@H]1OCCO)N(c1cc(Cl)cc(Cl)c1)[C@H]1CCCC[C@@H]1O (stereo partly drawn) [US12291519, Example 196]
15 | 7.43 | 6.85 | CO[C@@H]1[C@@H](n2cc(-c3cccc(F)c3)nn2)[C@@H](O)[C@@H](CO)O[C@H]1C(=O)N(c1cc(Br)cc(C#N)c1)[C@H]1CCCC[C@@H]1O [US12291519, Example 77]
16 | 7.85 | 6.48 | CO[C@@H]1[C@@H](n2cc(-c3cc(F)c(Cl)c(Cl)c3)nn2)[C@@H](O)[C@@H](CO)O[C@H]1C(=O)N(c1cc(Cl)cc(C#N)c1)[C@H]1CCCC[C@@H]1O [US12291519, Example 169]
17 | 7.36 | 5.95 | COc1cc(C#N)cc(N(C(=O)[C@@H]2O[C@H](CO)[C@H](O)[C@H](n3cc(-c4ccc(Cl)c(Cl)c4)nn3)[C@H]2OC)[C@H]2CCCC[C@@H]2O)c1 [US12291519, Example 188]
18 | 7.85 | 5.86 | CO[C@@H]1[C@@H](n2cc(-c3cc(F)c(Cl)c(F)c3)nn2)[C@@H](O)[C@@H](CO)O[C@H]1C(=O)N(c1cc(Cl)cc(Cl)c1)[C@H]1CCCC[C@@H]1O [US12291519, Example 156]
19 | 7.66 | 6.74 | CO[C@@H]1[C@@H](n2cc(-c3cc(F)cc(Cl)c3)nn2)[C@@H](O)[C@@H](CO)O[C@H]1C(=O)N(c1cc(Cl)cc(C#N)c1)[C@H]1CCCC[C@@H]1O [US12291519, Example 133]

Reference: BindingDB's records for patent US12291519 (Idorsia Pharmaceuticals, 2025)
